# Experiments:
# [1] = system: P388; assay: Antitumor activity against mouse P388 cells implanted in B6D2F1 mouse assessed as median survival time at 25 mg/kg, ip relative to control; type: functional; settings: route intraperitoneal
# [2] = system: P388; assay: Antitumor activity against mouse P388 cells implanted in B6D2F1 mouse assessed as median survival time at 200 mg/kg, ip relative to control; type: functional; settings: route intraperitoneal
# [3] = system: L1210; assay: Cytotoxicity against mouse L1210 cells after 48 hrs by […] assay; type: functional, cell-based; settings: L1210, 48 h
# [4] = system: P388; assay: Antitumor activity against mouse P388 cells implanted in B6D2F1 mouse assessed as median survival time at 0.78 mg/kg, ip relative to control; type: functional; settings: route intraperitoneal
# [5] = system: P388; assay: Antitumor activity against mouse P388 cells implanted in B6D2F1 mouse assessed as median survival time at 3.125 mg/kg, ip relative to control; type: functional; settings: route intraperitoneal
# [6] = system: P388; assay: Antitumor activity against mouse P388 cells implanted in B6D2F1 mouse assessed as median survival time at 1.56 mg/kg, ip relative to control; type: functional; settings: route intraperitoneal
# [7] = system: P388; assay: Antitumor activity against mouse P388 cells implanted in B6D2F1 mouse assessed as median survival time at 12.5 mg/kg, ip relative to control; type: functional; settings: route intraperitoneal
# [8] = system: P388; assay: Antitumor activity against mouse P388 cells implanted in B6D2F1 mouse assessed as median survival time at 6.25 mg/kg, ip relative to control; type: functional; settings: route intraperitoneal
smiles,measurement,setting,value
COc1cc2c(c3c1c(=O)c1ccccc1n3C)[C@@H](OC(C)=O)[C@@H](OC(C)=O)C(C)(C)O2 (relative stereo),T/C,[1],268%
COc1cc2c(c3c1c(=O)c1ccccc1n3C)C=CC(C)(C)O2 [ACRONINE],T/C,[2],125%
same,IC50,[3],25 µM
COc1cc2c(c3c1c(=O)c1ccccc1n3C)C(=O)C(O)(CC(C)=O)C(C)(C)O2 (racemic),IC50,[3],22.5 µM
COc1cc2c(c3c1c(=O)c1ccccc1n3C)[C@@H](O)[C@H](OC(C)=O)C(C)(C)O2 (racemic),IC50,[3],8.8 µM
COc1cc2c(c3c1c(=O)c1ccccc1n3C)[C@@H](O)[C@H](OC(=O)CCl)C(C)(C)O2 (racemic),IC50,[3],11 µM
COc1cc2c(c3c1c(=O)c1ccccc1n3C)C(=O)C(O)C(C)(C)O2 (racemic),IC50,[3],75.1 µM
COc1cc2c(c3c1c(=O)c1ccccc1n3C)[C@@H](OC(C)=O)[C@H](OC(C)=O)C(C)(C)O2 (racemic),T/C,[4],122%
same,T/C,[5],155%
same,T/C,[6],136%
same,T/C,[1],77%
same,T/C,[7],181%
same,T/C,[8],160%
same,IC50,[3],8.7 µM
